Laboratory results taken from paper PMC5366289 (Biochemistry, 2016).
Entries after “also recorded” stand apart in the source; their conditions may differ.

How the values were obtained:
[1] = Far-UV circular dichroism, helical content of T-domain peptides; assay type: physicochemical
[2] = tested on: E. coli cells; conditions: ref K. S. Jakes, unpublished data; listed as T100–120; cited from earlier work
[3] = target: TolC (Escherichia coli, UniProt P02930); conditions: BLM; concentration not given; listed as synthetic peptide 100–120
Sequence of TolC (P02930 23-493): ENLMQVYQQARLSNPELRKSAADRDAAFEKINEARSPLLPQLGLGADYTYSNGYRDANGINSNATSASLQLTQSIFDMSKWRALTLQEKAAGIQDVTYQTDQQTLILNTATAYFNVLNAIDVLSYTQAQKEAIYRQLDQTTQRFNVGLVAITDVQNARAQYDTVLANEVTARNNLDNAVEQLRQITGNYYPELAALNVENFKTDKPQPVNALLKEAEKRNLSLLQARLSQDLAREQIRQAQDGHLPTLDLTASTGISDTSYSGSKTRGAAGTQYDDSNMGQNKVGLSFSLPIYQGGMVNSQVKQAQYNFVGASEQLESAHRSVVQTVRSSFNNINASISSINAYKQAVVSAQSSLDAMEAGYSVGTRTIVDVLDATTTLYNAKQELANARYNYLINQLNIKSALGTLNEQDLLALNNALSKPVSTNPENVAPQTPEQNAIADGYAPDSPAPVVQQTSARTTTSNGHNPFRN

[4] = cytoplasmic membrane; cited from earlier work
[5] = tested on: E. coli, TolC Gly43 mutants; conditions: cited from earlier work

H-EALRHNASRTPSATELAHANN-OH [100–120 ^e]
no. of residues, helix ([1]; from helical content by far-UV CD, DichroWeb, tags assumed unordered): 0 residues | no. of residues, unordered ([1]; total number in peptide excluding tags minus residues in helices): 21 residues | protection of E. coli cells against colicin E1 cytotoxicity [2]: inability of the synthetic peptide T100–120, which lacks ordered secondary structure, to occlude TolC channels, and to protect E. coli cells; also recorded: does not protect E. coli cells | occlusion of TolC channels, in words [3]: did not occlude TolC channels

B1: colicin E1: 522-residue channel-forming colicin (protein, UniProt P02978 1-522, looked up)
Colicin-E1: METAVAYYKDGVPYDDKGQVIITLLNGTPDGSGSGGGGGKGGSKSESSAAIHATAKWSTAQLKKTQAEQAARAKAAAEAQAKAKANRDALTQRLKDIVNEALRHNASRTPSATELAHANNAAMQAEDERLRLAKAEEKARKEAEAAEKAFQEAEQRRKEIEREKAETERQLKLAEAEEKRLAALSEEAKAVEIAQKKLSAAQSEVVKMDGEIKTLNSRLSSSIHARDAEMKTLAGKRNELAQASAKYKELDELVKKLSPRANDPLQNRPFFEATRRRVGAGKIREEKQKQVTASETRINRINADITQIQKAISQVSNNRNAGIARVHEAEENLKKAQNNLLNSQIKDAVDATVSFYQTLTEKYGEKYSKMAQELADKSKGKKIGNVNEALAAFEKYKDVLNKKFSKADRDAIFNALASVKYDDWAKHLDQFAKYLKITGHVSFGYDVVSDILKIKDTGDWKPLFLTLEKKAADAGVSYVVALLFSLLAGTTLGIWGIAIVTGILCSYIDKNKLNTINEVLGI
channel conductance [4]: approximately 10^6 ions/s per channel | killing efficiency of colicin E1 on TolC Gly43 mutants ([5]; larger side chains at TolC residue 43): reduced the killing efficiency | decrease in colicin E1 cytotoxicity by TolC G43 mutation ([5]; mutation to residue with larger side chains): ≤ 1000 -fold
